Source: ChEMBL document CHEMBL4138190, “Anti-amyloidogenic and anti-apoptotic effect of α-bisabolol against Aβ induced neurotoxicity in PC12 cells” (Eur J Med Chem, 2018)
Activity calls are given as the source filed them. The calls are words filed in the database; no cut-off is given here.

Columns and labels:
[1] = molecular target: Amyloid-beta precursor protein (Homo sapiens) (UniProt P05067); assay: (§1) Inhibition of amyloid beta (25 to 35 residues) (unknown origin)-induced toxicity in rat PC12 cells assessed as increase in cell viability at 50 ug/ml preincubated for 2 hrs followed by amyloid beta (25 to 35 residues) addition measured after 24 hrs by MTT dye based light microscopic assay (reference value: 48%); conditions: at 50 µg/mL
Amyloid-beta precursor protein (Homo sapiens), sequence (P05067 whole entry, the tested form may be a part): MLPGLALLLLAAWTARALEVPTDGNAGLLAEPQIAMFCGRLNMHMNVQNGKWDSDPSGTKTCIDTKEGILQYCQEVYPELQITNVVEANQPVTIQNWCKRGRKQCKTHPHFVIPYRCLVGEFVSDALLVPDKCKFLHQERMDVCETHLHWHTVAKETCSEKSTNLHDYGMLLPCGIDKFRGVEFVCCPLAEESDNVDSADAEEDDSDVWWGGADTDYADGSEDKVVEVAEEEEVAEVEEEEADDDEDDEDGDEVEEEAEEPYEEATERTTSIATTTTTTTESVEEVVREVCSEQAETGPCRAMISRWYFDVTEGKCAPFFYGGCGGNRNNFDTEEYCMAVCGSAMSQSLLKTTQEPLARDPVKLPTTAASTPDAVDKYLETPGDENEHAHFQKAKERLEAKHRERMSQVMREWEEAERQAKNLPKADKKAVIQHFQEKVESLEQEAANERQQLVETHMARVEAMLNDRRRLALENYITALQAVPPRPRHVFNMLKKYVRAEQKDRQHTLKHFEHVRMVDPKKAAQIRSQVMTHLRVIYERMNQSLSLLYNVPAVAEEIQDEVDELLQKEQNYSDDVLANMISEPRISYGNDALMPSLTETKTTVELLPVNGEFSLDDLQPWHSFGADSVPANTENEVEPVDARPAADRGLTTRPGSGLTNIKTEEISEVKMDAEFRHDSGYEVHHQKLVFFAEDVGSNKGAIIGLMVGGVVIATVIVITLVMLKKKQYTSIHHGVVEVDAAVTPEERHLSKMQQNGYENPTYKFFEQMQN

[2] = molecular target: Amyloid-beta precursor protein (Homo sapiens) (UniProt P05067); assay: (§2) Inhibition of amyloid beta (25 to 35 residues) (unknown origin)-induced toxicity in rat PC12 cells assessed as protection against amyloid beta (25 to 35 residues)-induced apoptosis by measuring viable cells at 50 ug/ml by Annexin V-FITC/propidium iodide staining-based flow cytometric method (reference value: 48.71%); format: cell-based; conditions: at 50 µg/mL
[3] = molecular target: Amyloid-beta precursor protein (Homo sapiens) (UniProt P05067); assay: as §2, with “early apoptotic” for “viable”, “46%)” for “48.71%)”; format: cell-based; parameters: scale not given: the % may be the effect or the level left; conditions: at 50 µg/mL
[4] = molecular target: Amyloid-beta precursor protein (Homo sapiens) (UniProt P05067); assay: as §2, with “late apoptotic” for “viable”, “4.56%)” for “48.71%)”; format: cell-based; parameters: scale not given: the % may be the effect or the level left; conditions: at 50 µg/mL
[5] = molecular target: Amyloid-beta precursor protein (Homo sapiens) (UniProt P05067); assay: as §2, with “necrotic” for “viable”, “0.73%)” for “48.71%)”; format: cell-based; parameters: scale not given: the % may be the effect or the level left; conditions: at 50 µg/mL
[6] = molecular target: Amyloid-beta precursor protein (Homo sapiens) (UniProt P05067); conditions: at 50 µg/mL
Description: Inhibition of amyloid beta (25 to 35 residues) (unknown origin)-induced toxicity in rat PC12 cells assessed as cell survival at 50 ug/ml after 1 to 3 weeks by clonogenic assay (Rvb = 25%)

[7] = molecular target: Amyloid-beta precursor protein (Homo sapiens) (UniProt P05067); assay: Inhibition of amyloid beta (25 to 35 residues) (unknown origin) aggregation at 50 ug/ml after 24 to 48 hrs by thioflavin T dye based confocal laser scanning microscopy
[8] = molecular target: Amyloid-beta precursor protein (Homo sapiens) (UniProt P05067); assay: Disaggregation of amyloid beta (25 to 35 residues) (unknown origin) preformed fibrils at 50 ug/ml after 96 hrs to 9 days by thioflavin T dye based confocal laser scanning microscopy
[9] = molecular target: Amyloid-beta precursor protein (Homo sapiens) (UniProt P05067); assay: Inhibition of amyloid beta (25 to 35 residues) (unknown origin) aggregation at 50 ug/ml after 24 to 48 hrs by FTIR spectroscopy
[10] = molecular target: Amyloid-beta precursor protein (Homo sapiens) (UniProt P05067); assay: Disaggregation of amyloid beta (25 to 35 residues) (unknown origin) preformed fibrils at 50 ug/ml after 96 hrs to 9 days by FTIR spectroscopy
[11] = molecular target: Amyloid-beta precursor protein (Homo sapiens) (UniProt P05067); assay: Disaggregation of amyloid beta (25 to 35 residues) (unknown origin) preformed fibrils at 50 ug/ml after 96 hrs to 9 days by ThT-based fluorescence spectroscopic method
[12] = molecular target: Amyloid-beta precursor protein (Homo sapiens) (UniProt P05067); assay: Inhibition of amyloid beta (25 to 35 residues) (unknown origin) aggregation at 5 ug/ml after 24 to 48 hrs by ThT-based fluorescence spectroscopic method
[13] = molecular target: Amyloid-beta precursor protein (Homo sapiens) (UniProt P05067); assay: Disaggregation of amyloid beta (25 to 35 residues) (unknown origin) preformed fibrils at 5 ug/ml after 96 hrs to 9 days by ThT-based fluorescence spectroscopic method
[14] = molecular target: Amyloid-beta precursor protein (Homo sapiens) (UniProt P05067); assay: Inhibition of amyloid beta (25 to 35 residues) (unknown origin) aggregation at 5 ug/ml after 24 to 48 hrs by thioflavin T dye based confocal laser scanning microscopy
[15] = molecular target: Amyloid-beta precursor protein (Homo sapiens) (UniProt P05067); assay: Disaggregation of amyloid beta (25 to 35 residues) (unknown origin) preformed fibrils at 5 ug/ml after 96 hrs to 9 days by thioflavin T dye based confocal laser scanning microscopy
[16] = molecular target: Amyloid-beta precursor protein (Homo sapiens) (UniProt P05067); assay: Inhibition of amyloid beta (25 to 35 residues) (unknown origin) aggregation at 5 ug/ml after 24 to 48 hrs by phosphotungstic acid staining based transmission electron microscopy
[17] = molecular target: Amyloid-beta precursor protein (Homo sapiens) (UniProt P05067); assay: Disaggregation of amyloid beta (25 to 35 residues) (unknown origin) preformed fibrils at 5 ug/ml after 96 hrs to 9 days by phosphotungstic acid staining based transmission electron microscopy
[18] = molecular target: Amyloid-beta precursor protein (Homo sapiens) (UniProt P05067); assay: Inhibition of amyloid beta (25 to 35 residues) (unknown origin) aggregation at 5 ug/ml after 24 to 48 hrs by FTIR spectroscopy
[19] = molecular target: Amyloid-beta precursor protein (Homo sapiens) (UniProt P05067); assay: Disaggregation of amyloid beta (25 to 35 residues) (unknown origin) preformed fibrils at 5 ug/ml after 96 hrs to 9 days by FTIR spectroscopy
[20] = molecular target: Amyloid-beta precursor protein (Homo sapiens) (UniProt P05067); assay: as §2, with “5” for “50”; format: cell-based
[21] = molecular target: Amyloid-beta precursor protein (Homo sapiens) (UniProt P05067); assay: as §1, with “2 to 10” for “50”
Acetylcholinesterase = Acetylcholinesterase (Homo sapiens, UniProt P22303); assay: Inhibition of AChE (unknown origin) preincubated for 45 mins followed by ATCI substrate addition measured for 3 mins
Acetylcholinesterase, sequence (P22303 whole entry): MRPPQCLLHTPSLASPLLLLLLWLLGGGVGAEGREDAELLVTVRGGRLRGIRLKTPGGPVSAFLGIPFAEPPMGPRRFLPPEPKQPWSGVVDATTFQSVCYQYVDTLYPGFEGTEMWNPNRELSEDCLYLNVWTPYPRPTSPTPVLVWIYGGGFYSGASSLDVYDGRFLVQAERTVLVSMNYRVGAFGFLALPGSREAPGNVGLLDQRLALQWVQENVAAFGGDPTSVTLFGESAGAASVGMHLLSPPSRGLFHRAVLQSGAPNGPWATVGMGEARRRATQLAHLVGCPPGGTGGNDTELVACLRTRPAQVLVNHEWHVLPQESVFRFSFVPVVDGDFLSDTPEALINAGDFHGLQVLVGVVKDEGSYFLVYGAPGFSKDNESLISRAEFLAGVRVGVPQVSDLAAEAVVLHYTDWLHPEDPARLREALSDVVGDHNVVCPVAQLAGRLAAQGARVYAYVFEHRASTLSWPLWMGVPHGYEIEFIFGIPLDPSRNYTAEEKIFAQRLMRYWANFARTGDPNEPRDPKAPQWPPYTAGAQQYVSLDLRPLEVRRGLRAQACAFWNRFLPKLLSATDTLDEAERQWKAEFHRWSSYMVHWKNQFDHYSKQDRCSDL

[22] = molecular target: Amyloid-beta precursor protein (Homo sapiens) (UniProt P05067); assay: as §2, with “early apoptotic” for “viable”, “5” for “50”, “46%)” for “48.71%)”; format: cell-based; parameters: scale not given: the % may be the effect or the level left
[23] = molecular target: Amyloid-beta precursor protein (Homo sapiens) (UniProt P05067); assay: as §2, with “late apoptotic” for “viable”, “5” for “50”, “4.56%)” for “48.71%)”; format: cell-based; parameters: scale not given: the % may be the effect or the level left
[24] = molecular target: Amyloid-beta precursor protein (Homo sapiens) (UniProt P05067); assay: as §2, with “necrotic” for “viable”, “5” for “50”, “0.73%)” for “48.71%)”; format: cell-based; parameters: scale not given: the % may be the effect or the level left
[25] = molecular target: Amyloid-beta precursor protein (Homo sapiens) (UniProt P05067); assay: Inhibition of amyloid beta (25 to 35 residues) (unknown origin)-induced toxicity in rat PC12 cells assessed as cell survival at 5 ug/ml after 1 to 3 weeks by clonogenic assay (reference value: 25%); format: cell-based

COc1cc2c(cc1OC)C(=O)C(CC1CCN(Cc3ccccc3)CC1)C2 (stereo unspecified) gave an Activity [1] of 81%, an Activity [2] of 96.2% and an Activity [3] of 1.58%. For the same molecule, the Activity [4] was 0.26%, the Activity [5] was 2% and the Survival [6] was 96%.

COc1ccc2c3c1O[C@H]1C[C@@H](O)C=C[C@@]31CCN(C)C2 was tested, and the inhibition [7] was “Active”, the Activity [8] was “Active” and the inhibition [9] was “Active”. For the same molecule, the Activity [10] was “Active” and the Activity [11] was “Active”.

With CC(C)=CCC[C@@](C)(O)[C@H]1CC=C(C)CC1 the inhibition [12] was “Active”, the Activity [13] was “Active” and the inhibition [14] was “Active”. The Activity [15] was “Active”, the inhibition [16] was “Active” and the Activity [17] was “Active”. The inhibition [18] was “Active”, the Activity [19] was “Active” and the Activity [20] was 97.8%. It also gave an Activity [21] of over 80%, an IC50 (Acetylcholinesterase) of under 45 µM and an Activity [22] of 1.32%. For the same molecule, the Activity [23] was 0.31%, the Activity [24] was 0.62% and the Survival [25] was 96%.
